SMILES strings stand for the structures. In brackets after ≈: the same amount, converted by molar mass.

Common to all, as to test: Antibacterial activity (MIC)
Common to all, as to type: cell-based

Test [1] deals with Pseudomonas aeruginosa EP-172. The following applies: EP172.
Test [2] has as its system Staphylococcus aureus 209-P.
For test [3], the system named is Klebsiella pneumoniae EK-6. The conditions noted are these: EK6.
Test [4] relates to Serratia marcescens ES-75. The conditions noted are these: ES75.
The test system of test [5] is Proteus morganii EP-14. The following applies: Morganella morganii, EP14.
In test [6] the test system is Escherichia coli NIHJ.

In general, MIC refers to the lowest concentration that inhibits growth of the organism. On to `CCOC(=O)Oc1cc2occ(C(=O)N[C@@H](C(=O)N[C@@H]3C(=O)N4C(C(=O)O)=C(CSc5nnnn5CC(=O)O)CS[C@H]34)c3ccc(O)cc3)c(=O)c2cc1OC(=O)OCC` [Preparatory Example 2 A, 7β-[D-2-{6,7-bis(ethoxycarbonyloxy)chromone-3-carboxamido}-2-(4-hydroxyphenyl)acetamido]-3-[(1-carboxymethyl-5-tetrazolyl)thiomethyl]-3-cephem-4-carboxylic acid], for which the MIC in test [1] was 0.8 µg/mL (≈ 0.92 µM); in test [2], 6.25 µg/mL (≈ 7.19 µM); in test [3] it was not above 0.05 µg/mL; in test [4], not above 0.05 µg/mL; in test [5], 1.56 µg/mL (≈ 1.79 µM); in test [6], 0.4 µg/mL (≈ 0.46 µM).

`O=C(O)Cn1nnnc1SCC1=C(C(=O)O)N2C(=O)[C@@H](NC(=O)[C@H](NC(=O)c3coc4cc(O)c(O)cc4c3=O)c3ccc(O)cc3)[C@H]2SC1` [Preparatory Example 2 B, 7β-[D-2-(6,7-Dihydroxychromone-3-carboxyamido)-2-(4-hydroxyphenyl)acetamido]-3-[(1-carboxymethyl-5-tetrazolyl)thiomethyl]-cephem-4-carboxylic acid]: the MIC is 0.8 µg/mL (≈ 1.1 µM) in test [1]; 3.13 µg/mL (≈ 4.31 µM) in test [2]; not above 0.1 µg/mL in test [3]; not above 0.1 µg/mL in test [4]; 12.5 µg/mL (≈ 17.2 µM) in test [5]; 0.4 µg/mL (≈ 0.551 µM) in test [6].

(Values after EP0054578A1, “N-(substituted chromone-3-carbonyl)-phenylglycine derivatives” (Eisai Co., Ltd., priority 1980, dated 1982).)
